Laboratory results as given in the NIST ThermoML archive (doi:10.1016/j.jct.2015.10.017).
± gives the expanded uncertainty stated by the source.

Tests used:
[1] = mn = molality of the nth substance listed, in mol/kg; details: 100 kPa, Liquid; for viscosity: Falling or rolling sphere viscometry; for speed of sound: Frequency=3 MHz, Sing-around technique in a fixed-path interferometer; for mass density: Vibrating tube method
[2] = 100 kPa, Liquid, Falling or rolling sphere viscometry

Compound `CC(=O)NCC(=O)O` [N-acetylglycine] + O has a viscosity ([1]; 288.15 K, m1 = 0.05) of 1.091 ± 0.22 mPa·s, a viscosity ([1]; 288.15 K, m1 = 0.1) of 1.151 ± 0.23 mPa·s and a viscosity ([1]; 288.15 K, m1 = 0.2) of 1.187 ± 0.24 mPa·s. The speed of sound ([1]; 288.15 K, m1 = 0.05) was 1468.9 ± 10 m/s, the speed of sound ([1]; 288.15 K, m1 = 0.1) was 1472.1 ± 10 m/s and the speed of sound ([1]; 288.15 K, m1 = 0.2) was 1476.4 ± 10 m/s. For the same compound, the mass density ([1]; 288.15 K, m1 = 0.05) was 1001.32 ± 10 kg/m3, the mass density ([1]; 288.15 K, m1 = 0.1) was 1002.84 ± 10 kg/m3 and the mass density ([1]; 288.15 K, m1 = 0.2) was 1005.54 ± 10 kg/m3. It also gave a viscosity ([1]; 293.15 K, m1 = 0.05) of 0.9664 ± 0.19 mPa·s, a viscosity ([1]; 293.15 K, m1 = 0.1) of 1.019 ± 0.2 mPa·s and a viscosity ([1]; 293.15 K, m1 = 0.2) of 1.048 ± 0.21 mPa·s. For the same compound, the speed of sound ([1]; 293.15 K, m1 = 0.05) was 1484.8 ± 10 m/s, the speed of sound ([1]; 293.15 K, m1 = 0.1) was 1486.7 ± 10 m/s and the speed of sound ([1]; 293.15 K, m1 = 0.2) was 1491.2 ± 10 m/s. It also gave a mass density ([1]; 293.15 K, m1 = 0.05) of 1000.04 ± 10 kg/m3, a mass density ([1]; 293.15 K, m1 = 0.1) of 1001.89 ± 10 kg/m3 and a mass density ([1]; 293.15 K, m1 = 0.2) of 1004.84 ± 10 kg/m3. The viscosity ([1]; 298.15 K, m1 = 0.05) was 0.863 ± 0.17 mPa·s, the viscosity ([1]; 298.15 K, m1 = 0.1) was 0.9071 ± 0.18 mPa·s and the viscosity ([1]; 298.15 K, m1 = 0.2) was 0.9357 ± 0.19 mPa·s. It also gave a speed of sound ([1]; 298.15 K, m1 = 0.05) of 1499.6 ± 10 m/s, a speed of sound ([1]; 298.15 K, m1 = 0.1) of 1501.3 ± 10 m/s and a speed of sound ([1]; 298.15 K, m1 = 0.2) of 1504.5 ± 10 m/s. For the same compound, the mass density ([1]; 298.15 K, m1 = 0.05) was 998.801 ± 10 kg/m3, the mass density ([1]; 298.15 K, m1 = 0.1) was 1000.37 ± 10 kg/m3 and the mass density ([1]; 298.15 K, m1 = 0.2) was 1003.79 ± 10 kg/m3. The viscosity ([1]; 303.15 K, m1 = 0.05) was 0.8379 ± 0.17 mPa·s, the viscosity ([1]; 303.15 K, m1 = 0.1) was 0.8579 ± 0.17 mPa·s and the viscosity ([1]; 303.15 K, m1 = 0.2) was 0.8904 ± 0.18 mPa·s. It also gave a speed of sound ([1]; 303.15 K, m1 = 0.05) of 1514 ± 10 m/s, a speed of sound ([1]; 303.15 K, m1 = 0.1) of 1516.3 ± 10 m/s and a speed of sound ([1]; 303.15 K, m1 = 0.2) of 1519 ± 10 m/s. The mass density ([1]; 303.15 K, m1 = 0.05) was 997.363 ± 10 kg/m3, the mass density ([1]; 303.15 K, m1 = 0.1) was 998.824 ± 10 kg/m3 and the mass density ([1]; 303.15 K, m1 = 0.2) was 1002.6 ± 10 kg/m3. It also gave a viscosity ([1]; 308.15 K, m1 = 0.05) of 0.7411 ± 0.15 mPa·s, a viscosity ([1]; 308.15 K, m1 = 0.1) of 0.7624 ± 0.15 mPa·s and a viscosity ([1]; 308.15 K, m1 = 0.2) of 0.7856 ± 0.16 mPa·s. For the same compound, the speed of sound ([1]; 308.15 K, m1 = 0.05) was 1521.7 ± 10 m/s, the speed of sound ([1]; 308.15 K, m1 = 0.1) was 1524.7 ± 10 m/s and the speed of sound ([1]; 308.15 K, m1 = 0.2) was 1527.2 ± 10 m/s. For the same compound, the mass density ([1]; 308.15 K, m1 = 0.05) was 995.711 ± 10 kg/m3, the mass density ([1]; 308.15 K, m1 = 0.1) was 997.285 ± 10 kg/m3 and the mass density ([1]; 308.15 K, m1 = 0.2) was 1001.3 ± 10 kg/m3.
`O` [water] showed a viscosity ([2]; 288.15 K) of 1.043 ± 0.21 mPa·s, a viscosity ([2]; 293.15 K) of 0.9312 ± 0.19 mPa·s and a viscosity ([2]; 298.15 K) of 0.8319 ± 0.17 mPa·s. It also gave a viscosity ([2]; 303.15 K) of 0.7981 ± 0.16 mPa·s and a viscosity ([2]; 308.15 K) of 0.7202 ± 0.14 mPa·s.
`O` [water] + CC(=O)NCC(=O)O gave a viscosity ([1]; 288.15 K, m2 = 0) of 1.043 ± 0.21 mPa·s, a viscosity ([1]; 293.15 K, m2 = 0) of 0.9312 ± 0.19 mPa·s and a viscosity ([1]; 298.15 K, m2 = 0) of 0.8319 ± 0.17 mPa·s. It also gave a viscosity ([1]; 303.15 K, m2 = 0) of 0.7981 ± 0.16 mPa·s and a viscosity ([1]; 308.15 K, m2 = 0) of 0.7202 ± 0.14 mPa·s.
For `O` [water] + O=P([O-])([O-])O.[K+].[K+], the viscosity ([1]; 288.15 K, m2 = 0) was 1.043 ± 0.21 mPa·s, the viscosity ([1]; 293.15 K, m2 = 0) was 0.9312 ± 0.19 mPa·s and the viscosity ([1]; 298.15 K, m2 = 0) was 0.8319 ± 0.17 mPa·s. It also gave a viscosity ([1]; 303.15 K, m2 = 0) of 0.7981 ± 0.16 mPa·s and a viscosity ([1]; 308.15 K, m2 = 0) of 0.7202 ± 0.14 mPa·s.
Compound `O` [water] + O=P([O-])([O-])O.[Na+].[Na+] has a viscosity ([1]; 288.15 K, m2 = 0) of 1.043 ± 0.21 mPa·s, a viscosity ([1]; 293.15 K, m2 = 0) of 0.9312 ± 0.19 mPa·s and a viscosity ([1]; 298.15 K, m2 = 0) of 0.8319 ± 0.17 mPa·s. The viscosity ([1]; 303.15 K, m2 = 0) was 0.7981 ± 0.16 mPa·s and the viscosity ([1]; 308.15 K, m2 = 0) was 0.7202 ± 0.14 mPa·s.
